Data on 4 molecules can be found in paper PMC4839630, “Investigation the Possibility of Using Peptides with a Helical Repeating Pattern of Hydro-Phobic and Hydrophilic Residues to Inhibit IL-10” (PLoS ONE, 2016).

In general, Kd refers to a measure of binding affinity in units of concentration. High values mean a looser complex, low ones a tighter complex.

The test system of data set [1] is U937 cells. Briefly: 7-AAD cell-viability assay. Format: cell-based, human. To be noted: two independent assays, flow cytometry. How it is done:
7-AAD assay: 7-AAD Viability Staining Solution was purchased from eBioscience (Cat. 00–6993). Briefly, 5 μL of 7-aad were added to 5×10^5 cells for 5 minutes, and 7-aad staining was measured by a BD Accuri flow cytometry.
In order for a peptide to be useful as potential drug candidates, its cytotoxicity has to be low. We evaluated the cytotoxicity of P1 and P2 using 7-AAD cell-viability assay (S5 Fig).
In general terms: Flow cytometry measures light scatter and fluorescence of single cells or particles in a stream.

The subject of data set [2] is IL-10R on U937 cells. The data set is described as follows: Surface staining of IL-10 receptor (PE anti-IL10R antibody) on U937 cells by flow cytometry. Format: cell-based, human. The following applies: U937 stimulated overnight with LPS (4×10^−3 μM); P1 4.5 μM, P2 4.1 μM, P3 5.6 μM, P4 4.2 μM; MFI by flow cytometry. The protocol: Human macrophage cell line U937 was maintained in complete RPMI 1640 media (Gibco) supplemented with 10% heat inactivated FCS, 100 U of penicillin/ml and 100 μg of streptomycin/ml and were cultured at 37°C with 5% CO2.
In vitro stimulation of U937 cells: 2–5×10^5 of U937 cells were cultured in 1 mL of RPMI with 10% human serum containing 100 U of ampicillin and 100 U of streptomycin. The U937 cells were either unstimulated or stimulated with 4×10^−3 μM of LPS (Sigma, Cat. L3024-5MG) overnight, in the presence of different concentration of P1, P2 or P3 or anti-IL-10 (10 μg/mL, ~0.3 μM) or anti-IL-10R (10 μg/mL, ~0.1 μM) antibodies. Supernatants were collected and stored at -80°C till use.
Surface staining of IL-10 receptor on U937 cell membrane: 2–5×10^5 of U937 cells were stained with PE conjugated anti-IL10R antibody for 30 minutes on ice, then washed with PBS with 2% of FCS and analysed with an Acuri flowcytometor (BD, USA) as described previously.

In data set [3] the target is T1, IL-10R1 (Homo sapiens, UniProt Q13651).
T1 construct: purchased Creative BioMart, USA IL10RA-212H
T1 sequence (Q13651 22-578): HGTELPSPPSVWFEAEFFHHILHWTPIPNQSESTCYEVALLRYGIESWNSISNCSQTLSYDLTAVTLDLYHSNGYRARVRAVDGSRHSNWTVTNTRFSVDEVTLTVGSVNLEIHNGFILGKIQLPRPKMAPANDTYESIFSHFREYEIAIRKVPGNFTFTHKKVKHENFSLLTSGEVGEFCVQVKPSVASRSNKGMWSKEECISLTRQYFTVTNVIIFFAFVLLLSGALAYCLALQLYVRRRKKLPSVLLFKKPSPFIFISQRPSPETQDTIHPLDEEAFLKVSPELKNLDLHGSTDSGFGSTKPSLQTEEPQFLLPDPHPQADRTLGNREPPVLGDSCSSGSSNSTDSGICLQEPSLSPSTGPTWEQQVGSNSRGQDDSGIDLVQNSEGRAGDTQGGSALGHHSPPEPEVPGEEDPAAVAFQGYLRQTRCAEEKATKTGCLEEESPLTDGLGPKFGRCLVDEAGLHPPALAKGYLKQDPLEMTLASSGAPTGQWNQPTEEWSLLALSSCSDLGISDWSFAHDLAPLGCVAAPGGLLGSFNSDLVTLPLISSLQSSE
Briefly: SPR binding to immobilised IL-10R1. The following applies: SPR Biacore T100, CM5 chip, 1X PBS pH 7.4, 25°C, 10 μL/min; steady-state affinity analysis, three independent repeats. (SPR reads the build-up and loss of mass on a sensor chip optically.)

The target in data set [4] is IL-10 (Homo sapiens, UniProt P22301). The data set is described as follows: SPR binding to immobilised IL-10. Also noted: purchased ebioscience BMS/346. The following applies: SPR Biacore T100, CM5 chip, 1X PBS pH 7.4, 25°C, 10 μL/min; steady-state affinity analysis, three independent repeats.
For data set [5], the system named is MC/9 cells. The data set is described as follows: MC/9 cell proliferation, MTT assay. To be noted: 5×10^−5 μM IL-10, 1×10^4 cells, 48 h, media with 2×10^−5 μM IL4. Format: cell-based, mouse. How it is done:
Murine mast cell MC/9 cell line was purchased from ATCC, USA and cultured following the protocols in the product sheets. Briefly, MC/9 cells were cultured in complete RPMI 1640 media (Gibco) supplemented with 10% heat inactivated fetal calf serum (FCS), 100 U of penicillin/ml and 100 μg of streptomycin/ml and were cultured at 37°C with 5% CO2 and 5 ng of murine IL-4 or 1 ng of human IL-10 as recommended by ATCC, with or without adding P1, P2 or P3 respectively. MC/9 cell proliferation was determined by MTT assay (purchased from ATCC, USA) following the instruction of manufacturer.
Mouse mast cell line MC/9 growth is IL-10 dependent. We therefore investigated whether P1 or P2 is able to prevent IL-10 mediated MC/9 cell growth. MC/9 cells were cultured at different numbers for 48 hours and cell proliferation was measured by MTT assay, which measures the MC/9 cell proliferation. […] Thus, cell number of 1×10^4 was selected in the assay.

Ends that are not written are not given here.

FFRRFFRRFFRRFFRR [P2]: the “cell death, 7-AAD (in words)” value in data set [1] is recorded as “there is no significant difference for cell death in the presence or absence of P1 or P2”.

As to Lipopolysaccharide [LPS], the “binding of PE anti-IL-10R antibody (clone 3F9) to IL-10R on U937 cells” value in data set [2] was “More antibody binds to IL-10R1 after LPS stimulation, and is positively correlated with the dose of LPS”. In the case of FFKKFFKKFFKKFFKK [P1], the Kd stood at 16 ± 1.95 µM in data set [3] and 8.94 ± 0.37 µM in data set [4]. In data set [1], the “cell death, 7-AAD (in words)” value is reported as “there is no significant difference for cell death in the presence or absence of P1 or P2”.

B1: IL-10: Human IL10 purchased from ebioscience (Cat. No: BMS/346) (protein)
chain: SPGQGTQSENSCTHFPGNLPNMLRDLRDAFSRVKTFFQMKDQLDNLLLKESLLEDFKGYLGCQALSEMIQFYLEEVMPQAENQDPDIKAHVNSLGENLKTLRLRLRRCHRFLPCENKSKAVEQVKNAFNKLQEKGIYKAMSEFDIFINYIEAYMTMKIRN
For the molecule B1, the “increase in MC/9 cell proliferation” value in data set [5] was “approximately 133%”.
